In publication PMC7611149 (ACS chemical biology, 2018):

Tests used:
CpOGA = CpOGA (Clostridium perfringens, UniProt Q0TR53); experiment: biochemical; assay type: binding
human OGA (hOGA) = target: T1, human OGA (hOGA) (Homo sapiens, UniProt O60502); experiment: Fluorescence polarization displacement of GlcNAcstatin BF from hOGA; assay type: binding; conditions: FP displacement, 50 nM GlcNAcstatin BF, 250 nM hOGA, TBS pH 7.5
T1 sequence (O60502 60-336 limits assumed): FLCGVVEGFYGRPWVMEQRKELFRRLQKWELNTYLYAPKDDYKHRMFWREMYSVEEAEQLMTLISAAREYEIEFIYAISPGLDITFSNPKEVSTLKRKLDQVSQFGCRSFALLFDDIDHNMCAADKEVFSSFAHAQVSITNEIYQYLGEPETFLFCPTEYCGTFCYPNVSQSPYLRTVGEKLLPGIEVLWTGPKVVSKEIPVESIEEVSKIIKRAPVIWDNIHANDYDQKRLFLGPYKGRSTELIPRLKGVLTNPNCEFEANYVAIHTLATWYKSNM

CpOGA, sequence (Q0TR53 31-1001 limits assumed): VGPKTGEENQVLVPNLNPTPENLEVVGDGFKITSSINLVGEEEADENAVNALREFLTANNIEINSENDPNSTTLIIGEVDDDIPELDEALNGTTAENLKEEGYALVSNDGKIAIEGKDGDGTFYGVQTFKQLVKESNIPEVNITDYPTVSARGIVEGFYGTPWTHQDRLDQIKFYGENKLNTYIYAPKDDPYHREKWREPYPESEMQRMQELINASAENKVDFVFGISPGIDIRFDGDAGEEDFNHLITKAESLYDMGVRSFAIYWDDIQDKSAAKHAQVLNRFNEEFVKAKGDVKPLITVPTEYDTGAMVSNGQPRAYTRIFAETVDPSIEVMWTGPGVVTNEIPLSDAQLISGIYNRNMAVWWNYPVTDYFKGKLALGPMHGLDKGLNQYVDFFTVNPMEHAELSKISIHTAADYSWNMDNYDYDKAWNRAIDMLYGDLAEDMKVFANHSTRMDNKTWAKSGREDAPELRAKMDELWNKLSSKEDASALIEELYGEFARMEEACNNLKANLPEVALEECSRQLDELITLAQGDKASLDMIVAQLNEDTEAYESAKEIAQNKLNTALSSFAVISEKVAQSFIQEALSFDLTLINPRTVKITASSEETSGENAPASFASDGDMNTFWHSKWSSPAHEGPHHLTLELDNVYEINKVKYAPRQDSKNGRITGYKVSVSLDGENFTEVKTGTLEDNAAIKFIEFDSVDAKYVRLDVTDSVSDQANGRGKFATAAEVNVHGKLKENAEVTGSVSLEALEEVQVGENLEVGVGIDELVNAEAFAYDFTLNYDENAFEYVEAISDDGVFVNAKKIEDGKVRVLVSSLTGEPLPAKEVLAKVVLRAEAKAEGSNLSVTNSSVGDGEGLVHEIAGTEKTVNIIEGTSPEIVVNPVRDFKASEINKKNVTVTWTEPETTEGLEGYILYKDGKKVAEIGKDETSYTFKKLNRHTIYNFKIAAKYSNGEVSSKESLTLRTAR

| SMILES | Ki (CpOGA) [µM] | Ki (human OGA (hOGA)) [µM] |
| --- | --- | --- |
| FC(F)(F)C1=NCCNC=C1 [5TFD, 5-(trifluoromethyl)-2,3-dihydro-1H-1,4-diazepine] | 146 |  |
| CC(=O)N[C@H]1c2nc(CCc3ccccc3)cn2[C@H](CO)[C@@H](O)[C@@H]1O [GlcNAcstatin B] |  | 0.0232 |
